# Source: patent US20240174637A1, “DEGRADERS OF GRK2 AND USES THEREOF” (Sonata Therapeutics, Inc., priority 2021, published 2024)
# Read-outs that look alike come from different tables or passages of the source.
# Tests used:
# [1] = molecular target: T1, GRK2 (Homo sapiens, UniProt P25098); experiment: GRK2 Inhibition Assay (TR-FRET, Example 1); type: biochemical
# T1 sequence (P25098 1-689): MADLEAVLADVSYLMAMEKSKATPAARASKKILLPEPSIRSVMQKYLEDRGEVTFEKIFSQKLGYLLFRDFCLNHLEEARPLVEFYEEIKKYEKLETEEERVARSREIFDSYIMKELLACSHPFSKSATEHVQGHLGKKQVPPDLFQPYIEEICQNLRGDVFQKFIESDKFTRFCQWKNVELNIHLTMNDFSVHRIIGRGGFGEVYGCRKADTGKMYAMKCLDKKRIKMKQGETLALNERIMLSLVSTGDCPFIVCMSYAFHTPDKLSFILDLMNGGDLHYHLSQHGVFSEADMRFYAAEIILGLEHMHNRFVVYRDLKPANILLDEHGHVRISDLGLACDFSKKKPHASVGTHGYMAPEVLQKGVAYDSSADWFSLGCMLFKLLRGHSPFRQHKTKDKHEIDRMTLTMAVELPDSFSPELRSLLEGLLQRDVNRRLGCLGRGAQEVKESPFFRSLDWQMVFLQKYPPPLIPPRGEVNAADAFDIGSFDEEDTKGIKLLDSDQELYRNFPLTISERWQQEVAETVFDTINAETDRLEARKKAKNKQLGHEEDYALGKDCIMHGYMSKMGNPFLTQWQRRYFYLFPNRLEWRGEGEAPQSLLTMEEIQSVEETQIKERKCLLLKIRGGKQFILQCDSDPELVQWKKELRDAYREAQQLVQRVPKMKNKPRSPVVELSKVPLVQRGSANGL
# Summary of the method: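 GRK2 (1 nM) pre-incubated 30 min RT with compounds in HEPES/MgCl2/DTT/Tween-20/EGTA buffer, then reacted 90 min RT with 7 μM ATP and 50 nM ULight-TopoIIα substrate. Stopped with EDTA plus Eu anti-TopoIIα antibody; TR-FRET read after 60 min.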
# [2] = molecular target: T1, GRK2; experiment: GRK2 Degradation Assay and Western Blot in PAXF1657 cells; type: cell-based; parameters: endogenous in cells; host or cells: PAXF1657; conditions: for DC50: PAXF1657, 24 h, read-out: Degradation Assay - Full Dose Response: IC50 (uM) [cell line: PAXF1657, time point: 24 h]
# Summary of the method: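 PAXF1657 cells grown to 70% confluency, then treated with compounds at 0–10 μM for 6 to 24 h at 37 °C. Lysates in PBS with 1% NP40 run on SDS-PAGE. GRK2 protein detected by western blot with β-actin as loading reference, using ECL chemiluminescence.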
# [3] = test system: PAXF1657 EV; experiment: 7-day cellular proliferation assay (CellTiter-Glo), PAXF1657 EV; type: cell-based
# Summary of the method: (§1)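 PAXF1657 isogenic lines (GRK2-overexpressing vs empty vector; CRISPR GRK2 knockout vs non-targeting control clones) seeded 500 cells/well in RPMI1640/10% FBS and treated next day with 10-point dilutions, 30 μM-0.0002 μM final, 0.3% DMSO. Media with compound refreshed after 3 days; viability read by CellTiter-Glo luminescence at day 7.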
# [4] = test system: PAXF1657 KO Clone #4; experiment: 7-day cellular proliferation assay (CellTiter-Glo), PAXF1657 KO Clone #4; type: cell-based
# Summary of the method: as §1
# [5] = Table 4, Example 1 assay, read-out: Enzymatic GRK2 IC50: Av IC50 GRK2
# [6] = Conc 0.3 uM, read-out: Degradation Assay - 3 point: Degradation (%)
# [7] = Conc 1 uM, read-out: Degradation Assay - 3 point: Degradation (%)
# [8] = Conc 3 uM, read-out: Degradation Assay - 3 point: Degradation (%)
# [9] = proliferation, read-out: GeoMean IC50 (UM) PAXF1657 EV
# [10] = proliferation, read-out: GeoMean IC50 (uM) PAXF1657 KO Clone #4
# [11] = TR-FRET, 7 μM ATP, read-out: Enzymatic GRK2 Assay: IC50 (nM) (Example 1)
# [12] = 1 uM, PAXF1657 EV, 24 hrs, read-out: % GRK2 degradation at 1 uM in PAXF1657 EV (24 hrs)
# [13] = 3 uM, PAXF1657 EV, 24 hrs, read-out: % GRK2 degradation at 3 uM in PAXF1657 EV (24 hrs)
# [14] = 168 h, 7-day, read-out: 7-day proliferation assay: IC50 GeoMean (uM) [Cell Line: PAXF1657 EV]
# [15] = 168 h, 7-day, read-out: 7-day proliferation assay: IC50 GeoMean (uM) [Cell Line: PAXF1657 KO Clone #4]
# [16] = 0.3 uM, PAXF1657 EV, 24 hrs, read-out: % GRK2 degradation at 0.3 uM in PAXF1657 EV (24 hrs)
Structure (SMILES),"IC50 [1, 5]","inhibition at 0.3 µM [2, 6]","inhibition at 1 µM [2, 7]","inhibition at 3 µM [2, 8]","IC50 [3, 9]","IC50 [4, 10]",DC50 [2],"IC50 [1, 11]","inhibition at 1 µM [2, 12]","inhibition at 3 µM [2, 13]","IC50 [3, 14]","IC50 [4, 15]","inhibition at 0.3 µM [2, 16]"
"C[C@@H](NC(=O)c1cccc(NCc2nnc(-c3ccncn3)n2C)c1)c1ccc(OCCCCCCOCCOCCOCCC(=O)N2CCN(c3cc4c(cc3F)C(=O)N(C3CCC(=O)NC3=O)C4=O)CC2)cc1 (stereo partly drawn) [Compound D137, N-((1R)-1-(4-(6-(2-(2-(3-(4-(2-(2,6-dioxopiperidin-3-yl)-6-fluoro-1,3-dioxoisoindolin-5-yl)piperazin-1-yl)-3-oxopropoxy)ethoxy)ethoxy)hexyloxy)phenyl)ethyl)-3-((4-methyl-5-(pyrimidin-4-yl)-4H-1,2,4-triazol-3-yl)methylamino)benzamide]",12.5 nM,71.2%,79.2%,80.4%,0.14 µM,22.8 µM,–,–,–,–,–,–,–
"C[C@@H](NC(=O)c1cccc(NCc2nnc(-c3ccncn3)n2C)c1)c1cccc(OCCCCCCOCCOCCOCCCCCC(=O)N2CCN(c3ccc4c(c3)CN(C3CCC(=O)NC3=O)C4=O)CC2)c1 (stereo partly drawn) [Compound D191, N-((1R)-1-(3-((6-(2-(2-((6-(4-(2-(2,6-dioxopiperidin-3-yl)-1-oxoisoindolin-5-yl)piperazin-1-yl)-6-oxohexyl)oxy)ethoxy)ethoxy)hexyl)oxy)phenyl)ethyl)-3-(((4-methyl-5-(pyrimidin-4-yl)-4H-1,2,4-triazol-3-yl)methyl)amino)benzamide]",24.9 nM,36.7%,78.1%,86%,0.32 µM,> 30 µM,–,–,–,–,–,–,–
Cc1ncsc1-c1ccc(CNC(=O)[C@@H]2C[C@@H](O)CN2C(=O)[C@@H](NC(=O)CCCOCCOCCOCCCCCCCCOc2ccc([C@@H](C)NC(=O)c3cccc(NCc4nnc(-c5ccncn5)n4C)c3)cc2)C(C)(C)C)cc1 [Compound D148],14.1 nM,46.7%,21.2%,0.218%,0.1 µM,8.31 µM,2.57 µM,–,–,–,–,–,–
CN[C@@H](C)C(=O)N[C@H](C(=O)N1CCC[C@H]1c1nc(C(=O)c2cccc(OCc3cn(CCCCCCOc4cccc([C@@H](C)NC(=O)c5cccc(NCc6nnc(-c7ccncn7)n6C)c5)c4)nn3)c2)cs1)C1CCCCC1 [Compound D105],8.71 nM,87%,86%,85%,0.11 µM,3.72 µM,–,–,–,–,–,–,–
C[C@@H](NC(=O)c1cccc(NCc2nnc(-c3ccncn3)n2C)c1)c1cccc(OCCCCCCOCCOCCNc2cccc3c2CN(C2CCC(=O)NC2=O)C3=O)c1 (some centres unmarked) [Compound D143],10.4 nM,88%,82%,83%,0.11 µM,5.32 µM,0.11 µM,–,–,–,–,–,–
"C[C@@H](NC(=O)c1cccc(NCc2nnc(-c3ccncn3)n2C)c1)c1cccc(OCCCCCOCCCOCC(=O)N2CCN(c3cc4c(cc3F)C(=O)N(C3CCC(=O)NC3=O)C4=O)CC2)c1 (stereo partly drawn) [Compound D180, N-((1R)-1-(3-((5-(3-(2-(4-(2-(2,6-dioxopiperidin-3-yl)-6-fluoro-1,3-dioxoisoindolin-5-yl)piperazin-1-yl)-2-oxoethoxy)propoxy)pentyl)oxy)phenyl)ethyl)-3-(((4-methyl-5-(pyrimidin-4-yl)-4H-1,2,4-triazol-3-yl)methyl)amino)benzamide]",7.31 nM,43%,74%,85%,0.82 µM,> 30 µM,–,–,–,–,–,–,–
Cc1ncsc1-c1ccc([C@H](C)NC(=O)[C@@H]2C[C@@H](O)CN2C(=O)[C@@H](NC(=O)CCCCCOCCOCCOCCCCCCOc2cccc(CNC(=O)c3cccc(NCc4nnc(-c5ccncn5)n4C)c3)c2)C(C)(C)C)cc1 [Compound D90],–,–,–,–,–,–,–,< 100 nM,23%,20%,1 to 10 µM,> 10 µM,–
"Cn1c(CNc2cccc(C(=O)NCc3cc(OCCCCCOCCCOCC(=O)Nc4cccc5c4CN(C4CCC(=O)NC4=O)C5=O)ccc3F)c2)nnc1-c1ccncn1 (centres unmarked) [Compound D197, N-(5-(5-(3-(2-(2-(2,6-dioxopiperidin-3-yl)-1-oxoisoindolin-4-ylamino)-2-oxoethoxy)propoxy)pentyloxy)-2-fluorobenzyl)-3-((4-methyl-5-(pyrimidin-4-yl)-4H-1,2,4-triazol-3-yl)methylamino)benzamide]",82.3 nM,-6.8%,27.7%,54.5%,5.89 µM,> 30 µM,–,–,–,–,–,–,–
"C[C@@H](NC(=O)c1cccc(NCc2nnc(-c3ccncn3)n2C)c1)c1cccc(OCCCCCCOCCOCCOCCCCCC(=O)Nc2cccc3c2CN(C2CCC(=O)NC2=O)C3=O)c1 (stereo partly drawn) [Compound D57, N-((1R)-1-(3-((6-(2-(2-((6-((2-(2,6-dioxopiperidin-3-yl)-1-oxoisoindolin-4-yl)amino)-6-oxohexyl)oxy)ethoxy)ethoxy)hexyl)oxy)phenyl)ethyl)-3-(((4-methyl-5-(pyrimidin-4-yl)-4H-1,2,4-triazol-3-yl)methyl)amino)benzamide]",–,–,–,–,–,–,–,< 100 nM,82%,85%,> 10 µM,> 10 µM,70%
"C[C@@H](NC(=O)c1cccc(NCc2nnc(-c3ccncn3)n2C)c1)c1cccc(OCCCCCCOCCOCCOCCCC(=O)N2CCN(c3cc4c(cc3F)C(=O)N(C3CCC(=O)NC3=O)C4=O)CC2)c1 (stereo partly drawn) [Compound D178, N-((1R)-1-(3-((6-(2-(2-(4-(4-(2-(2,6-dioxopiperidin-3-yl)-6-fluoro-1,3-dioxoisoindolin-5-yl)piperazin-1-yl)-4-oxobutoxy)ethoxy)ethoxy)hexyl)oxy)phenyl)ethyl)-3-(((4-methyl-5-(pyrimidin-4-yl)-4H-1,2,4-triazol-3-yl)methyl)amino)benzamide]",11.6 nM,45%,72%,84%,0.31 µM,> 30 µM,–,–,–,–,–,–,–
Cn1c(CNc2cccc(C(=O)NCc3cccc(OCCCCCCn4cc(CCCC(=O)Nc5cccc6c5CN(C5CCC(=O)NC5=O)C6=O)nn4)c3)c2)nnc1-c1ccncn1 (centres unmarked) [Compound D63],–,–,–,–,–,–,–,< 100 nM,55%,68%,> 10 µM,> 10 µM,34%
"C[C@@H](NC(=O)c1cccc(NCc2nnc(-c3ccncn3)n2C)c1)c1cccc(OCCCCN2CCN(c3ccc4c(c3)CN(C3CCC(=O)NC3=O)C4=O)CC2)c1 (stereo partly drawn) [Compound D129, N-((1R)-1-(3-(4-(4-(2-(2,6-dioxopiperidin-3-yl)-1-oxoisoindolin-5-yl)piperazin-1-yl)butoxy)phenyl)ethyl)-3-((4-methyl-5-(pyrimidin-4-yl)-4H-1,2,4-triazol-3-yl)methylamino)benzamide]",27.9 nM,79.8%,77.5%,70.6%,0.1 µM,> 30 µM,0.08 µM,–,–,–,–,–,–
